Where two headings read alike, the source gives them in different places.
How the values were obtained:
ovine COX-1 = biological target: T1, ovine COX-1 (Ovis aries, UniProt P05979); test: COX Inhibitor Screening Assay kit, COX-1; format: biochemical
T1 construct: purchased 560131
T1 sequence (P05979 25-600): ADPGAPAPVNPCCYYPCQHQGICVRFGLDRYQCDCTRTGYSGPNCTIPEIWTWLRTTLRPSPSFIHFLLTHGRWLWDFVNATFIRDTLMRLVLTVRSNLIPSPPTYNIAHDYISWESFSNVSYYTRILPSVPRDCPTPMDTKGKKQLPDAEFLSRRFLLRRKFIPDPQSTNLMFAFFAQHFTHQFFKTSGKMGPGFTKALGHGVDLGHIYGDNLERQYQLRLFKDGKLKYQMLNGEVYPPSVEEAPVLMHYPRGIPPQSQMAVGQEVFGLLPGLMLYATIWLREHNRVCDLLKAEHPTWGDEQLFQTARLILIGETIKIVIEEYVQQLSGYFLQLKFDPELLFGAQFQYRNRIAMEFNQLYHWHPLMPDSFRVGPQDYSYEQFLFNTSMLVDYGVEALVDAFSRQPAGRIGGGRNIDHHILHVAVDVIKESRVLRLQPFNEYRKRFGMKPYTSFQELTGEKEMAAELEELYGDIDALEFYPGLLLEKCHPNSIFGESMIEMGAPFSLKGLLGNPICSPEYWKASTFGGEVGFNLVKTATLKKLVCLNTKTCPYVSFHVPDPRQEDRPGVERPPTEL

human recombinant COX-2 = biological target: T2, human recombinant COX-2 (Homo sapiens, UniProt P35354); test: biochemical; format: biochemical; conditions: for IC50: average of 3 independent runs, read-out: COX-2 IC50 (µM)±SE
T2 construct: purchased 560131
T2 sequence (P35354 18-604): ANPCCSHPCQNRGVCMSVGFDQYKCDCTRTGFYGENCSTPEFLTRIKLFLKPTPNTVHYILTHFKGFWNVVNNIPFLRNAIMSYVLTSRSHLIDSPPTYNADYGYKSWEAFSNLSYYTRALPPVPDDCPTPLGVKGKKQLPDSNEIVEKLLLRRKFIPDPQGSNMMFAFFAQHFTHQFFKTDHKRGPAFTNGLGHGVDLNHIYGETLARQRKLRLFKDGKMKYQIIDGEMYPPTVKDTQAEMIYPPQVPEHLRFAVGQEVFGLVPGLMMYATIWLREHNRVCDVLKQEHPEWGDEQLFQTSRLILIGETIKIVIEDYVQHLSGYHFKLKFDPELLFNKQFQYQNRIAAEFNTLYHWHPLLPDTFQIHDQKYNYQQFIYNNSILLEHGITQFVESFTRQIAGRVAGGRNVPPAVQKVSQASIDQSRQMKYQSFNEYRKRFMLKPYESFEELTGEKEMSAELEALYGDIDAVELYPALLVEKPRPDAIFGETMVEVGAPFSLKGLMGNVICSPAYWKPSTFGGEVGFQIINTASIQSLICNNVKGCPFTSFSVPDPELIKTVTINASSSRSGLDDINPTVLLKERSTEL

AChE [1] = biological target: T3, AChE (Electrophorus electricus, UniProt O42275); test: biochemical
PAS of EeAChE = PAS of EeAChE (Electrophorus electricus, UniProt O42275); test: Propidium iodide displacement from the PAS of AChE (fluorescence); format: binding; conditions: EeAChE 7 µM, propidium iodide 8 µM; for % Displacement of propidium iodide 290 µM: compound 290 µM; for % Displacement of propidium iodide 340 µM: compound 340 µM
Experimental: The ability of compounds to competitively displace propidium iodide was evaluated by a fluorescence method[43]. […] Donepezil was used as reference compound. The blank contained propidium iodide of the same concentration in 1 mM Tris-HCl buffer pH 8.0. The measurements were carried out in triplicate on a microplate reader Perkin Elmer VictorX2 (Perkin Elmer, Singapur).

Tc-AChE = test: Kinetic characterisation of AChE inhibition (Lineweaver-Burk); format: biochemical, Torpedo californica
Experimental: The rate of enzyme activity was measured at eight different concentrations of substrate acetylthiocholine iodide (ATC).
Data analysis was carried out with SigmaPlot v10.0.

AChE [2] = biological target: T3, AChE; conditions: read-out: AChE IC50 (µM)±SE; average of 3 independent runs
[3] = read-out: COX-1 IC50 (µM)±SE, average of 3 independent runs
[4] = selectivity index, COX-1 IC50 / COX-2 IC50

PAS of EeAChE, sequence (O42275 24-633): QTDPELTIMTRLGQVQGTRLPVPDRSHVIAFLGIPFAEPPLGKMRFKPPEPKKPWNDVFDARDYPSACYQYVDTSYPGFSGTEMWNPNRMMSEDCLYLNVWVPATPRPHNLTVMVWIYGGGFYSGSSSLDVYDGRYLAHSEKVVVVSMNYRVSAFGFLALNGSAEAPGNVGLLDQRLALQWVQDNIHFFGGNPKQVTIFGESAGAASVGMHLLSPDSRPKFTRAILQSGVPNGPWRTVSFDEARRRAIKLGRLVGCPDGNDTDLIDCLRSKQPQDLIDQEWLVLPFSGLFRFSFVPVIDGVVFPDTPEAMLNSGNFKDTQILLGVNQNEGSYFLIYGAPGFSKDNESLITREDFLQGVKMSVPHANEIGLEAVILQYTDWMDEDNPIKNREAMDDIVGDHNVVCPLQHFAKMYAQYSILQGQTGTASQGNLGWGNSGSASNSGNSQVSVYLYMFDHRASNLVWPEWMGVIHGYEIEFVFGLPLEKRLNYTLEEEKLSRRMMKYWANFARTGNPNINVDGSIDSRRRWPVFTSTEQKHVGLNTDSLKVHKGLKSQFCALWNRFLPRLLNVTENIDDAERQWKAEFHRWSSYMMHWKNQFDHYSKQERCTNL
T3 sequence (O42275 24-633): as above

SMILES: CC(=O)OC[C@@]12[C@@H](OC(C)=O)CC[C@@H](C)[C@]13OC(C)(C)[C@H](C[C@@H]2OC(=O)c1ccccc1)[C@H]3OC(C)=O [Compound 9, 1α,6β,14-triacetoxy-9β-benzyloxydihydro-β-agarofuran]
- IC50 (ovine COX-1): 8.69 ± 0.03 µM
- SI(COX-1/COX-2) (human recombinant COX-2): 124.14
- IC50 (human recombinant COX-2): 0.07 ± 0.004 µM
- IC50 (AChE [1]): 695 ± 0.001 µM

SMILES: CC(=O)O[C@@H]1[C@H](OC(=O)c2ccccc2)[C@@]2(C)[C@@H](OC(=O)c3ccccc3)C[C@@H]3[C@@H](OC(C)=O)[C@]2(OC3(C)C)[C@@](C)(O)[C@H]1OC(C)=O [Compound 11]
- IC50 (ovine COX-1): 13.08 ± 0.02 µM
- SI(COX-1/COX-2) (human recombinant COX-2): 145.33
- IC50 (human recombinant COX-2): 0.09 ± 0.005 µM
- IC50 (AChE [1]): 30 ± 0.06 µM
- % Displacement of propidium iodide 290 µM (PAS of EeAChE): 12.1 ± 0.7%
- % Displacement of propidium iodide 340 µM (PAS of EeAChE): 13.4 ± 0.2%

SMILES: Cc1ccc(C(C)C)cc1O [Carvacrol, reference compound]
- IC50 (AChE [1]): 45 ± 0.031 µM

SMILES: CC1(C)OC23CC1CCC2(C)CCC(O)C3(C)O (stereo not drawn) [Compound 4, 3α,4α-dihydroxydihydro-β-agarofuran]
- Mode of AChE inhibition (Tc-AChE; Lineweaver-Burk plots, eight concentrations of substrate ATC): non-competitive inhibitor
- Km (Tc-AChE; unchanged at increasing concentrations of the inhibitor, substrate ATC): 110 µM
- IC50 (ovine COX-1): 14.21 ± 0.035 µM
- SI(COX-1/COX-2) (human recombinant COX-2): 37.39
- IC50 (human recombinant COX-2): 0.38 ± 0.007 µM
- IC50 (AChE [1]): 17 ± 0.016 µM
- % Displacement of propidium iodide 290 µM (PAS of EeAChE): 13.9 ± 0.3%
- % Displacement of propidium iodide 340 µM (PAS of EeAChE): 17.6 ± 0.5%

SMILES: CC(=O)O[C@H]1CC[C@](C)(O)[C@]23OC(C)(C)[C@H](C[C@H](OC(=O)c4ccoc4)[C@]12C)[C@H]3OC(=O)c1ccoc1 [Compound 8, 1α-Acetoxy-6β,9β-difuroyloxy-4β-hydroxydihydro-β-agarofuran]
- IC50 (AChE [2]): 738 ± 0.007 µM
- IC50 (ovine COX-1; [3]): 10.59 ± 0.02 µM
- SI(COX-1/COX-2) (human recombinant COX-2): 264.75
- IC50 (human recombinant COX-2): 0.04 ± 0.007 µM

SMILES: CC1=CCC[C@@]2(C)CC[C@@H]3C[C@]12OC3(C)C [Compound 3, α-agarofuran]
- IC50 (ovine COX-1): 11.36 ± 0.035 µM
- SI(COX-1/COX-2) (human recombinant COX-2): 66.82
- IC50 (human recombinant COX-2): 0.17 ± 0.002 µM
- IC50 (AChE [1]): 26 ± 0.012 µM
- % Displacement of propidium iodide 290 µM (PAS of EeAChE): 12.2 ± 0.2%
- % Displacement of propidium iodide 340 µM (PAS of EeAChE): 15.8 ± 0.5%

SMILES: CC1(C)OC23CC1CCC2(C)CCC(OC(=O)c1ccco1)C3CO (stereo not drawn) [Compound 6, 3α-furoyloxy-15-hydroxydihydro-β-agarofuran]
- IC50 (ovine COX-1): 12.69 ± 0.035 µM
- SI(COX-1/COX-2) (human recombinant COX-2): 97.61
- IC50 (human recombinant COX-2): 0.13 ± 0.003 µM
- IC50 (AChE [1]): 32 ± 0.006 µM

SMILES: CC(=O)OC[C@]12[C@@H](OC(=O)c3ccccc3)[C@H](OC(C)=O)[C@@H]3[C@@H](OC(=O)c4ccccc4)[C@]1(OC3(C)C)[C@@](C)(O)[C@H](OC(C)=O)[C@H](OC(C)=O)[C@@H]2OC(C)=O [Compound 12, 1α,2α,3α,8α,14-pentaacetoxy-6β,9β-dibenzyloxy-4β-hydroxidihydro-β-agarofuran]
- IC50 (ovine COX-1): 14.2 ± 0.2 µM
- IC50 (human recombinant COX-2): 0.84 ± 0.012 µM
- SI(COX-1/COX-2) (human recombinant COX-2; [4]): 16.92

SMILES: CC(=O)O[C@@H]1[C@H]2[C@@H](O)[C@H](OC(=O)c3ccccc3)[C@]3(C)[C@@H](O)CC[C@@H](C)[C@@]13OC2(C)C [Compound 13]
- IC50 (ovine COX-1): 11.36 ± 0.035 µM
- SI(COX-1/COX-2) (human recombinant COX-2): 103.27
- IC50 (human recombinant COX-2): 0.11 ± 0.007 µM
- IC50 (AChE [1]): 500 ± 0.03 µM

SMILES: CC(=O)OC1CCC2(C)CCC3CC2(OC3(C)C)C1(C)O (stereo not drawn) [Compound 5, 3α-acetoxy-4α-hydroxydhydro-β-agarofuran]
- IC50 (ovine COX-1): 13.08 ± 0.02 µM
- SI(COX-1/COX-2) (human recombinant COX-2): 32.7
- IC50 (human recombinant COX-2): 0.4 ± 0.0014 µM
- IC50 (AChE [1]): 43 ± 0.015 µM

SMILES: CC(=O)O[C@@H]1[C@@H]2[C@@H](OC(C)=O)[C@]3(OC2(C)C)[C@H](C)CC[C@H](O)[C@@]3(C)[C@H]1OC(=O)c1ccoc1 [Compound 10, 6β,8α-diacetoxy-9β-furoyloxy-1α-hydroxydihydro-β-agarofuran]
- IC50 (AChE [2]): 740 ± 0.045 µM
- IC50 (ovine COX-1; [3]): 13.74 ± 0.1 µM
- SI(COX-1/COX-2) (human recombinant COX-2): 47.37
- IC50 (human recombinant COX-2): 0.29 ± 0.0003 µM

SMILES: CC1(C)OC23CC1CCC2(C)CCC(OC(=O)c1ccccc1)C3CO (stereo not drawn) [Compound 7]
- IC50 (ovine COX-1): 11.98 ± 0.042 µM
- IC50 (human recombinant COX-2): 0.21 ± 0.008 µM
- SI(COX-1/COX-2) (human recombinant COX-2; [4]): 57.05

— article PMC9278454, “Dyhidro-β-agarofurans natural and synthetic as acetylcholinesterase and COX inhibitors: interaction with the peripheral anionic site (AChE-PAS), and anti-inflammatory potentials” (Journal of Enzyme Inhibition and Medicinal Chemistry, 2022)
